Results from patent US6576656B1, “Oxindole derivative” (Sumitomo Pharmaceuticals Co., Ltd., priority 1998, dated 2003).
Like-named read-outs stand apart in the source and are kept apart here.

Experiments:
[1] = increase in the weight of rats after oral administration for 9 days; format: in vivo, rat; details: 10 mg/kg/day×2 orally for 9 days, 11-week-old F 344/N rats (6/group); p<0.01; distilled water group 13.5±2.3 g
Method: The compound of Example 74 (10 mg/kg/day×2) were administered orally to 11-week-old F 344/N rats (6/group) for 9 days and increase in the weight of each rat was measured.

rat pituitary cells = assay: growth hormone releasing activity from rat pituitary cells in vitro (GH measured by RIA); format: cell-based; details: read-out: EC50 (GH releasing efficacy)
Method: Compounds of the present invention were evaluated for their growth hormone releasing activity from rat pituitary cells in vitro in accordance with the method described in the literature (R. G. Smith et al., Science, 260, 1640 (1993)). Pituitary glands removed from 7-week-old Wistar/ST male rats were washed with HBSS (Hank's balanced salt solution) three times and minced into small pieces (ca. 1 mm^2) using a pair of scissors. […] An enzyme solution (0.1 mL per a pituitary gland) was added and the cell dispersion was carried out in a water bath at 37° C. for ca 20-30 min, during which time the digested mixture was mixed by successive up-take and down-take of the suspension using a pipette, every 5 minutes. The resulting cell suspension was centrifuged at 1200 rpm for 2-3 min at room temperature and the supernatant fluid was discarded. A cultured medium was added and the resulting cell suspension was again centrifuged at 1200 rpm for 2-3 min at room temperature and the supernatant fluid was discarded. This procedure was repeated another 2 times. […] The culture medium was discarded and an assay medium (0.1 mL) was added. The incubation was continued for 1.5 h and the cells were washed with the assay medium. […] The supernatant fluid was recovered and the GH content present was measured by RIA (radioimmunoassay). An aliquot of the solution was diluted to 0.05 mL with a RIA buffer which consisted of PBS (pH 7.3) containing 1% BSA, 0.1% NaN3 and 25 mM EDTA. […] Cell membrane fractions containing protein A were added and the mixture was allowed to stand for 20 min and centrifuged. The supernatant fluid was removed and the precipitates were washed with the RIA buffer. The ^125I content in the precipitates was measured. The GH concentration in the sample was calculated from the standard curve made by using the standard GH sample. The EC50 values of the test compounds were determined using recurrent calculation from the following equation, where X is the concentration of the test compound, Y is the GH concentration at the given assay, and B is the EC50 value. C means recurrently calculated GH concentration in the absence of the test compound and A+C means recurrently calculated GH concentration when a maximum amount of the test compound is present. […] The culture medium used here consisted of DMEM (Dulbecco's Modified Eagle's Medium) containing 10% horse serum, 2.5% fetal bovine serum, 1% nonessential amino acids, 0.01% streptomycin and penicillin (100 IU/mL). The cultured medium described above was adjusted to pH 7.3 by adding a 25 mM HEPES buffer and the resulting solution was used as the assay medium. […] The resulting mixture was used as the test compound solution. […]

| Structure (SMILES) | increase in the weight [1] [g] | EC50 (rat pituitary cells; Rattus norvegicus, 0.25 h) [nM] | EC50 (rat pituitary cells; cultured pituitary cells of 7-week-old Wistar/ST male rats, 15 min at 37° C., GH by RIA) [nM] |
| --- | --- | --- | --- |
| CCN(CC)CCN1C(=O)C(O)(c2ccccc2Cl)c2c1cc(C(N)=O)cc2C(F)(F)F (single isomer, unassigned; (+)) [Example 74, (+)-1-(2-Diethylaminoethyl)-4-trifluoromethyl-6-carbamoyl-3-hydroxy-3-(2-chlorophenyl)oxindole] | 19.5 ± 2.1 | 0.5 |  |
| CCN(CC)CCN1C(=O)C(O)(c2ccccc2F)c2c(Br)cccc21 (centres unmarked) [Example 21, 4-Bromo-1-(2-diethylaminoethyl)-3-hydroxy-3-(2-fluorophenyl)oxindole] |  | 4 |  |
| CCN(CC)CCN1C(=O)C(O)(c2ccccc2Cl)c2c1cc(C#CCCC(=O)N1CCOCC1)cc2C(F)(F)F (centres unmarked) [Example 70, 1-(2-Diethylaminoethyl)-4-trifluoromethyl-6-(4-morpholinocarbonyl-1-butynyl)-3-hydroxy-3-(2-chlorophenyl)oxindole] |  | 5 |  |
| CCN(CC)CCN1C(=O)C(O)(c2ccc(Cl)cc2Cl)c2c1cc(C(N)=O)cc2C(F)(F)F (centres unmarked) [Example 91, 1-(2-Diethylaminoethyl)-4-trifuoromethyl-6-carbamoyl-3-hydroxy-3-(2,4-dichlorophenyl)oxindole] |  |  | 1.2 |
